Measured values: PubChem BioAssay AID330 (DTP/NCI, 2004)
Where “and” joins values, the source holds several entries; their conditions need not be identical. Identical values can stand only once. Inconclusive results and toxic doses are left out. How the source made its calls: active means survival T/C of 150% or more; inactive means T/C below 125% in these data. Peptide text beside a SMILES is read from it. * marks the point of attachment. Cbz = O=C(OCc1ccccc1)*

System: P388 leukemia ip, CD2F1 mice, survival T/C
Test: NCI In Vivo Anticancer Drug Screen. Data for tumor model P388 Leukemia (intraperitoneal) in CD2F1 (CDF1) mice
Details: endpoint: median survival time, higher = longer survival
Procedure, shortened: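 Mice carrying the transplanted tumor received test compound or vehicle. Survival was recorded in each group, and the value is the treated-group measurement divided by that of the vehicle-treated control group.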

[1] = dose: 50.0 mg/kg/injection, schedule: Q01DX009 (ip), vehicle: saline with Tween-80
[2] = dose: 100.0 mg/kg/injection, schedule: Q01DX009 (ip), vehicle: saline with Tween-80
[3] = dose: 200.0 mg/kg/injection, schedule: Q01DX009 (ip), vehicle: saline with Tween-80
[4] = dose: 60.0 mg/kg/injection, schedule: Q01DX005 (ip), vehicle: saline with Tween-80
[5] = dose: 120.0 mg/kg/injection, schedule: Q01DX005 (ip), vehicle: saline with Tween-80
[6] = dose: 25.0 mg/kg/injection, schedule: Q01DX005 (ip), vehicle: Klucel (hydroxypropylcellulose) (HPC)
[7] = dose: 50.0 mg/kg/injection, schedule: Q01DX005 (ip), vehicle: Klucel (hydroxypropylcellulose) (HPC)
[8] = dose: 25.0 mg/kg/injection, schedule: Q01DX009 (ip), vehicle: saline with Tween-80
[9] = dose: 100.0 mg/kg/injection, schedule: Q01DX005 (ip), vehicle: Klucel (hydroxypropylcellulose) (HPC)
[10] = dose: 60.0 mg/kg/injection, schedule: Q01DX005 (ip), vehicle: Klucel (hydroxypropylcellulose) (HPC)
[11] = dose: 120.0 mg/kg/injection, schedule: Q01DX005 (ip), vehicle: Klucel (hydroxypropylcellulose) (HPC)
[12] = dose: 60.0 mg/kg/injection, schedule: Q01DX005 (ip), vehicle: saline
[13] = dose: 120.0 mg/kg/injection, schedule: Q01DX005 (ip), vehicle: saline
[14] = dose: 240.0 mg/kg/injection, schedule: Q01DX005 (ip), vehicle: saline
[15] = dose: 1.56 mg/kg/injection, schedule: Q01DX009 (ip), vehicle: distilled water + Tween-80
[16] = dose: 3.13 mg/kg/injection, schedule: Q01DX009 (ip), vehicle: distilled water + Tween-80
[17] = dose: 6.25 mg/kg/injection, schedule: Q01DX009 (ip), vehicle: distilled water + Tween-80
[18] = dose: 12.5 mg/kg/injection, schedule: Q01DX009 (ip), vehicle: distilled water + Tween-80

Measured: T/C

CC1(C)NC(=O)N2CCCC(=O)CC21 (stereo not drawn)
inactive: dose: 100.0 mg/kg/injection, schedule: Q01DX001 (ip), vehicle: saline 96 % of control | dose: 200.0 mg/kg/injection, schedule: Q01DX001 (ip), vehicle: saline 95 % of control | dose: 400.0 mg/kg/injection, schedule: Q01DX001 (ip), vehicle: saline 96 % of control

CC1CC(=O)Nc2ncccc2N1 (stereo not drawn)
inactive: [1] 94 % of control | [2] 94 % of control | [3] 94 % of control

COCCOCCOCCOCCOCCN
inactive: dose: 100.0 mg/kg/injection, schedule: Q04DX003 (ip), vehicle: saline 100 % of control | dose: 200.0 mg/kg/injection, schedule: Q04DX003 (ip), vehicle: saline 100 % of control | dose: 400.0 mg/kg/injection, schedule: Q04DX003 (ip), vehicle: saline 104 % of control

COc1ccc2c(N=[N+]=[N-])ccnc2c1
inactive: [4] 89 % of control | [5] 89 % of control

O=C(N=Nc1c(Cl)c(O)c2ccccc2c1O)C(=O)Nc1cccc(C(F)(F)F)c1
inactive: dose: 6.25 mg/kg/injection, schedule: Q01DX005 (ip), vehicle: Klucel (hydroxypropylcellulose) (HPC) 107 % of control | dose: 12.5 mg/kg/injection, schedule: Q01DX005 (ip), vehicle: Klucel (hydroxypropylcellulose) (HPC) 107 % of control | [6] 107 % of control | [7] 98 % of control

COc1ccc(I)c(C=NC2CCCCC2)c1C
inactive: dose: 50.0 mg/kg/injection, schedule: Q01DX005 (ip), vehicle: distilled water + Tween-80 + alcohol 98 % of control | dose: 100.0 mg/kg/injection, schedule: Q01DX005 (ip), vehicle: distilled water + Tween-80 + alcohol 97 % of control | dose: 200.0 mg/kg/injection, schedule: Q01DX005 (ip), vehicle: distilled water + Tween-80 + alcohol 98 % of control

O=C(CC(=O)C(F)(F)F)c1cc2ccccc2s1
inactive: [8] 113 % of control | [1] 96 % of control | [2] 115 % of control

Cc1cccc(C(O)(c2cccc(C)c2)C2(O)CCN(C)CC2)c1
inactive: [6] 98 % of control | [7] 98 % of control | [9] 102 % of control

O=[N+]([O-])c1ccc(/C=C/C=C\c2ccc(S(=O)(=O)F)cc2Cl)cc1
inactive: [4] 94 % of control | [5] 96 % of control | dose: 240.0 mg/kg/injection, schedule: Q01DX005 (ip), vehicle: saline with Tween-80 95 % of control

COC1=CC23CCCN2CCc2cc4c(cc2C3C1O)OCO4 (stereo not drawn)
inactive: dose: 12.5 mg/kg/injection, schedule: Q01DX009 (ip), vehicle: water 103 % of control | dose: 25.0 mg/kg/injection, schedule: Q01DX009 (ip), vehicle: water 99 % of control | dose: 50.0 mg/kg/injection, schedule: Q01DX009 (ip), vehicle: water 104 % of control | [10] 101 % of control | dose: 100.0 mg/kg/injection, schedule: Q01DX009 (ip), vehicle: water 96 % of control | [11] 106 % of control | dose: 200.0 mg/kg/injection, schedule: Q01DX009 (ip), vehicle: water 99 % of control | dose: 240.0 mg/kg/injection, schedule: Q01DX005 (ip), vehicle: Klucel (hydroxypropylcellulose) (HPC) 101 % of control

CCOC(=O)C(NC(C)=O)(C(=O)OCC)C1CCCC1=O (stereo not drawn)
inactive: [12] 94 % of control | [13] 96 % of control | [14] 100 % of control

Cc1ccc(NC(=S)SCc2ccc(Cl)c(Cl)c2)cc1Cl
inactive: dose: 50.0 mg/kg/injection, schedule: Q01DX009 (ip), vehicle: suspension in saline 112 % of control | dose: 100.0 mg/kg/injection, schedule: Q01DX009 (ip), vehicle: suspension in saline 115 % of control | dose: 200.0 mg/kg/injection, schedule: Q01DX009 (ip), vehicle: suspension in saline 116 % of control

O=C(NC(CSSCC(NC(=O)c1ccccc1)C(=O)O)C(=O)O)c1ccccc1 (stereo not drawn)
inactive: [1] 109 % of control | [2] 90 % of control | [3] 101 % of control | dose: 400.0 mg/kg/injection, schedule: Q01DX009 (ip), vehicle: saline with Tween-80 93 % of control

O=S(=O)(OC(F)(F)F)C(F)(F)F
inactive: dose: 24.5 mg/kg/injection, schedule: Q01DX001 (ip), vehicle: Klucel (hydroxypropylcellulose) (HPC) 97 % of control | dose: 49.0 mg/kg/injection, schedule: Q01DX001 (ip), vehicle: Klucel (hydroxypropylcellulose) (HPC) 94 % of control | dose: 98.0 mg/kg/injection, schedule: Q01DX001 (ip), vehicle: Klucel (hydroxypropylcellulose) (HPC) 94 % of control

NC(CCC(=O)OCCn1c2ccccc2c2ccccc21)C(=O)O (stereo not drawn)
inactive: [8] 97 % of control | [1] 93 % of control | [2] 97 % of control

COc1ccc(C(C)(O)C2CC2)cc1 (stereo not drawn)
inactive: dose: 100.0 mg/kg/injection, schedule: Q01DX001 (ip), vehicle: Klucel (hydroxypropylcellulose) (HPC) 107 % of control | dose: 200.0 mg/kg/injection, schedule: Q01DX001 (ip), vehicle: Klucel (hydroxypropylcellulose) (HPC) 103 % of control | dose: 400.0 mg/kg/injection, schedule: Q01DX001 (ip), vehicle: Klucel (hydroxypropylcellulose) (HPC) 103 % of control

Nc1cccc(S(=O)(=O)Nc2c(N)[nH]c(=S)[nH]c2=O)c1
inactive: dose: 30.0 mg/kg/injection, schedule: Q01DX005 (ip), vehicle: Klucel (hydroxypropylcellulose) (HPC) 101 % of control and 94 % of control | [10] 99 % of control and 100 % of control and 97 % of control | [11] 96 % of control and 97 % of control

COc1ccc(/C(C#N)=C\c2ccnc3ccccc23)cc1
inactive: [15] 103 % of control | [16] 94 % of control | [17] 93 % of control | [18] 94 % of control | dose: 25.0 mg/kg/injection, schedule: Q01DX009 (ip), vehicle: distilled water + Tween-80 91 % of control

CC(C)=NOCCC#N
inactive: [12] 99 % of control | [13] 99 % of control | [14] 101 % of control

N#CCCN(CCc1ccccn1)C(=S)Nc1cccc(C(F)(F)F)c1
inactive: dose: 50.0 mg/kg/injection, schedule: Q04DX003 (ip), vehicle: saline with Tween-80 99 % of control | dose: 100.0 mg/kg/injection, schedule: Q04DX003 (ip), vehicle: saline with Tween-80 101 % of control | dose: 200.0 mg/kg/injection, schedule: Q04DX003 (ip), vehicle: saline with Tween-80 100 % of control | dose: 400.0 mg/kg/injection, schedule: Q04DX003 (ip), vehicle: saline with Tween-80 101 % of control

CC(C)(C)C(=O)C1C(=O)c2ccccc2C1=O
inactive: dose: 1.56 mg/kg/injection, schedule: Q04DX003 (ip), vehicle: Klucel (hydroxypropylcellulose) (HPC) 98 % of control | dose: 3.12 mg/kg/injection, schedule: Q04DX003 (ip), vehicle: Klucel (hydroxypropylcellulose) (HPC) 89 % of control

c1ccc(-c2cnnc3c4ccccc4nn23)cc1
inactive: [7] 97 % of control | [9] 96 % of control | dose: 200.0 mg/kg/injection, schedule: Q01DX005 (ip), vehicle: Klucel (hydroxypropylcellulose) (HPC) 91 % of control

CC1C(c2ccccc2)NC(c2ccccc2)C(C)C1(O)c1ccccc1 (stereo not drawn)
inactive: dose: 50.0 mg/kg/injection, schedule: Q01DX005 (ip), vehicle: saline with Tween-80 107 % of control | dose: 100.0 mg/kg/injection, schedule: Q01DX005 (ip), vehicle: saline with Tween-80 107 % of control

COC(=O)C(NC(=O)C1CCCN1C(=O)OCc1ccccc1)C(C)C (stereo not drawn) (Cbz-Pro-Val-OMe; configuration not given here)
inactive: [1] 98 % of control | [2] 104 % of control | [3] 107 % of control

O=S(=O)(O)c1ccc(-c2c3nc(c(-c4ccc(S(=O)(=O)O)cc4)c4ccc([nH]4)c(-c4ccc(S(=O)(=O)O)cc4)c4nc(c(-c5ccc(S(=O)(=O)O)cc5)c5ccc2[nH]5)C=C4)C=C3)cc1
inactive: [15] 97 % of control | [16] 100 % of control | [17] 100 % of control | [18] 102 % of control and 109 % of control
